US12048737B2, “Use of a vaccine targeting a cryptic tert epitope, for treating cancer in a HLA-A*0201-positive patient having a non-immunogenic tumor expressing tert” (KRIPTIC PHARMACEUTICALS LIMITED, priority 2017, dated 2024)
Where “and” joins values, the source holds several entries; their conditions need not be identical. Equal entries are not always repeated.

Tested on: NSCLC tumors expressing TElomerase Reverse Transcriptase (TERT)
Test: Vx-001-201 randomized double blind phase IIb study: clinical outcome (OS, TTF, 12 months survival)
Type: in vivo, human
Conditions: without natural immunity; for HR (OS) / HR (TTF): Vx-001 vs placebo
From the text: The Vx-001-201 study is a randomized, double blind multicenter study done in 70 centers in France, Germany, Spain, Italy, Greece, Poland, Romania and Czech Republic. Key eligibility criteria were a) non small cell lung cancer (NSCLC), b) stage IV or recurrent stage I-III, c) disease control after platinum based first line chemotherapy according to RECIST 1.1 criteria, d) HLA-A*0201 positivity, e) tumors expressing TElomerase Reverse Transcriptase (TERT), f) ECOG 0 or 1 g) absence of brain metastasis.
• a) Principal endpoint: overall survival (OS) measured from randomization • b) Secondary endpoints: • Time to Treatment Failure (TTF) measured from randomization • OS at 12 months • c) Main exploratory objectives • Evaluation of vaccine induced specific immune response • Correlation between vaccine specific immune response and clinical response Procedures and Vaccination Protocol
Patients who fulfilled all inclusion criteria were randomized within 4 weeks after the end of first line chemotherapy.
The vaccination protocol consisted in six vaccinations at three week interval. The optimized Vx-001/TERT572Y was used in the first two vaccinations and the native Vx-001/TERT572 in the following four vaccinations. Patients who continued controlling their disease after the sixth vaccination received boost vaccination with the Vx-001/TERT572 every three months. Vaccination was stopped at disease progression (FIG. 1).
The primary and secondary endpoints were analysed in the Full Analysis Set (FAS) composed of all patients who fulfilled the five main criteria a) NSCLC, b) stage IV or recurrent stage I-III, c) disease control after first line chemotherapy, d) HLA-A*0201 positivity and e) TERT expressing tumors.
We used the Kaplan-Meier method to estimate OS and TTF in each arm and a Cox proportional hazards regression model to estimate Hazard Ratio (HR) relating OS and TTF to the treatment effect.

[1] = Former smoker (≤20 years) (never smoked or smokers less than 20 years)
[2] = Former smoker (≤25 years) (never smoked or smokers less than 25 years)
[3] = Heavy smoker (>25 years, former or current smoker)
[4] = NS or light smoker (≤25 years, former or current smoker)

Substance: Vx-001: vaccine composed of two nine amino acid peptides, TERT572 and TERT572Y, administered separately with the adjuvant Montanide ISA51 VG (chain 1 RLFFYRKSV; chain 2 YLFFYRKSV; Montanide ISA51 VG adjuvant; peptide from a human protein; optimized peptide)
- Median survival (OS) (1st line CDDP (n = 46)): 13.4 months
- HR (OS) (1st line CDDP (n = 46)): 0.51
- HR (TTF) (1st line CDDP (n = 46)): 0.67
- 12 months OS (<65 years (n = 59)): 53.6%
- Median TTF (<65 years (n = 59)): 3.5 months
- Median survival (OS) (<65 years (n = 59)): 12.7 months
- HR (OS) (<65 years (n = 59)): 1.00
- HR (TTF) (<65 years (n = 59)): 0.84
- 12 months OS (>65 years (n = 63)): 57.1%
- Median TTF (>65 years (n = 63)): 4.4 months
- Median survival (OS) (>65 years (n = 63)): 14.1 months
- HR (OS) (>65 years (n = 63)): 0.63
- HR (TTF) (>65 years (n = 63)): 0.65
- 12 months OS (Current smoker): 20%
- Median TTF (Current smoker): 4.4 months
- Median survival (OS) (Current smoker): 6.4 months
- HR (OS) (Current smoker): 1.3
- HR (TTF) (Current smoker): 0.70
- 12 months OS (Female (n = 33)): 52.9%
- Median TTF (Female (n = 33)): 4.6 months
- Median survival (OS) (Female (n = 33)): 12.7 months
- HR (OS) (Female (n = 33)): 1.24
- HR (TTF) (Female (n = 33)): 0.91
- Median TTF (Former smoker (<30 years)): 4.2 months
- HR (TTF) (Former smoker (<30 years)): 0.55
- Median TTF [1]: 5.6 months
- HR (TTF) [1]: 0.39
- Median TTF [2]: 5.6 months
- HR (TTF) [2]: 0.43
- 12 months OS [3]: 42.1%
- Median survival (OS) [3]: 9.9 months
- HR (OS) [3]: 1.15
- 12 months OS (Male (n = 89)): 56.4%
- Median TTF (Male (n = 89)): 3.7 months
- Median survival (OS) (Male (n = 89)): 14.1 months
- HR (OS) (Male (n = 89)): 0.70
- HR (TTF) (Male (n = 89)): 0.7
- 12 months OS (NS + Former smoker (<30 years)): 78%
- Median survival (OS) (NS + Former smoker (<30 years)): 20.2 months
- HR (OS) (NS + Former smoker (<30 years)): 0.37
- 12 months OS (NS + Former smoker (≤20 years)): 80%
- Median survival (OS) (NS + Former smoker (≤20 years)): 20.2 months
- HR (OS) (NS + Former smoker (≤20 years)): 0.23
- 12 months OS (NS + Former smoker (≤25 years)): 82.3%
- Median survival (OS) (NS + Former smoker (≤25 years)): 20.7 months
- HR (OS) (NS + Former smoker (≤25 years)): 0.29
- 12 months OS [4]: 83.0%
- Median survival (OS) [4]: 20.7 months
- HR (OS) [4]: 0.27
- 12 months OS (NSQ (n = 76)): 56.7%
- Median survival (OS) (NSQ (n = 76)): 13.4 months
- HR (OS) (NSQ (n = 76)): 0.58
- Median TTF (NSQ (n = 78)): 4.6 months
- HR (TTF) (NSQ (n = 78)): 0.61
- Median TTF (Never smoker): 5.6 months
- 12 months OS (Never smoker (NS)): 85.7%
- Median survival (OS) (Never smoker (NS)): 16.2 months
- HR (OS) (Never smoker (NS)): 0.2
- HR (TTF) (Never smoker): 0.51
- 12 months OS (OR to chemotherapy (n = 55)): 59% and 57.9%
- Median TTF (OR to chemotherapy (n = 55)): 5.3 months
- Median survival (OS) (OR to chemotherapy (n = 55)): 13.2 months
- HR (OS) (OR to chemotherapy (n = 55)): 0.72
- HR (TTF) (OR to chemotherapy (n = 55)): 0.56
- 12 months OS (SD to chemotherapy (n = 67)): 54%
- Median TTF (SD to chemotherapy (n = 67)): 3.6 months
- Median survival (OS) (SD to chemotherapy (n = 67)): 13.6 months
- HR (OS) (SD to chemotherapy (n = 67)): 0.82
- HR (TTF) (SD to chemotherapy (n = 67)): 0.95
- 12 months OS (SQ (n = 46)): 52.6%
- Median TTF (SQ (n = 46)): 3 months
- Median survival (OS) (SQ (n = 46)): 13.2 months
- HR (OS) (SQ (n = 46)): 1.41
- HR (TTF) (SQ (n = 46)): 1.18
